As a reminder, the pIC50 is the IC50 on a negative log10 scale, so that one unit is a factor of ten. Low values mean a large IC50, high ones a small IC50.

Common to all, as to assay: pIC50, kinobeads binding competition
In experiment [1] the target is TAOK3 (UniProt Q9H2K8). The essentials:
(§1)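 Nine compound concentrations were tested, starting at 30 μM in 1:4 steps on live Jurkat cells (60 min, 37 °C, then lysis) or in 1:5 steps on Jurkat lysate or a 1:1:1:1 HEK293/K-562/HepG2/placenta lysate mix (60 min, 4 °C). Kinobeads-bound proteins were digested and quantified with TMT10 LC-MS/MS. pIC50 values are from logistic dose-response fits in the R drc package of fold changes relative to vehicle, from biological duplicates.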

Experiment [2] deals with IRAK1 (UniProt P51617). Summed up: as §1
Sequence of IRAK1 (P51617 whole entry, looked up): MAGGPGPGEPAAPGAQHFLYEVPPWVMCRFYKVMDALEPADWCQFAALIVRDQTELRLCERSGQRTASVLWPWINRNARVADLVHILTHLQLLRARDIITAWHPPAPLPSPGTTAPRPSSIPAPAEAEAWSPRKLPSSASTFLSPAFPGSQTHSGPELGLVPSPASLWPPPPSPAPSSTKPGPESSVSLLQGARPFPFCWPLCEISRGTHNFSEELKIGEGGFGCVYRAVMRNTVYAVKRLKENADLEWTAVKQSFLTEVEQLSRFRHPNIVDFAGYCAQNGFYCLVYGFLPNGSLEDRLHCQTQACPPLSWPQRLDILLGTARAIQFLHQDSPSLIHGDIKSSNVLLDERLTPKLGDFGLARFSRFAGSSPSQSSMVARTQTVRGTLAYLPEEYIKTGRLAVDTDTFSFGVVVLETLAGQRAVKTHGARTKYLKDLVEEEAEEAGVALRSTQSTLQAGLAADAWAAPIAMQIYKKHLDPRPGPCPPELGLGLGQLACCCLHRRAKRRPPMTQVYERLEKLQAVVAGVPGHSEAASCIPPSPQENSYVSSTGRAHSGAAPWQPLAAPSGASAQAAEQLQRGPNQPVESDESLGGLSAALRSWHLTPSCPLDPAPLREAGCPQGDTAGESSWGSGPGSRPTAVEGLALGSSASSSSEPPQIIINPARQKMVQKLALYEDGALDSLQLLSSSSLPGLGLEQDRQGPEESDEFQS
The target in experiment [3] is LYN (UniProt P07948). Summed up:
as §1

Experiment [4] addresses T1, EPHB1 (UniProt P54762).
T1 sequence (whole entry): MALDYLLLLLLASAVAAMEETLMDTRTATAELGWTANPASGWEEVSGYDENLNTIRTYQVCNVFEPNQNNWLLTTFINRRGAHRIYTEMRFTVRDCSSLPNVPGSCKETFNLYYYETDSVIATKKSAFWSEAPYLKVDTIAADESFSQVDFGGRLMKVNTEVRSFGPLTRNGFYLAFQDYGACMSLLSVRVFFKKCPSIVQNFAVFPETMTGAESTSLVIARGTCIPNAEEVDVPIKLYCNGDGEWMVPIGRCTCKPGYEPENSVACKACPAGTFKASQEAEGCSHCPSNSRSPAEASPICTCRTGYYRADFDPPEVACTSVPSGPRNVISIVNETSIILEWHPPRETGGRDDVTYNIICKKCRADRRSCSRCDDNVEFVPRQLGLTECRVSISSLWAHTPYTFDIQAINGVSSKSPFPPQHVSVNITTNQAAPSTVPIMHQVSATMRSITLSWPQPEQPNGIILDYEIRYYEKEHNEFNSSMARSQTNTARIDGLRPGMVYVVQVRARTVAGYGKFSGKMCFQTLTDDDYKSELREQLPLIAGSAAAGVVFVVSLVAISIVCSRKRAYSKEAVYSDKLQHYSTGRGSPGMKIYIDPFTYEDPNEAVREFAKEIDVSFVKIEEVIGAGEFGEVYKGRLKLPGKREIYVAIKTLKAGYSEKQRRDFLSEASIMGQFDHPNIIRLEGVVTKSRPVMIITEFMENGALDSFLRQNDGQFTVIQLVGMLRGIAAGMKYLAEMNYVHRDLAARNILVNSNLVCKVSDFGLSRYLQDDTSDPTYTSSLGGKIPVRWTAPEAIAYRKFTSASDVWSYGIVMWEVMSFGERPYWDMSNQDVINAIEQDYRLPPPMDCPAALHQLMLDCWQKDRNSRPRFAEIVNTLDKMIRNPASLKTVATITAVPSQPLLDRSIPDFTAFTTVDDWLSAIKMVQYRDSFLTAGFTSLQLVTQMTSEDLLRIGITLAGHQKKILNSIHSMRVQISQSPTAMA
To be noted: cell material: Lysate mix. The essentials:
as §1

Experiment [5] addresses FGR (UniProt P09769). Summed up:
as §1

The target of experiment [6] is STK39 (UniProt Q9UEW8). Summed up: as §1
In experiment [7] the target is T2, UniProt Q15831.
T2 sequence (whole entry): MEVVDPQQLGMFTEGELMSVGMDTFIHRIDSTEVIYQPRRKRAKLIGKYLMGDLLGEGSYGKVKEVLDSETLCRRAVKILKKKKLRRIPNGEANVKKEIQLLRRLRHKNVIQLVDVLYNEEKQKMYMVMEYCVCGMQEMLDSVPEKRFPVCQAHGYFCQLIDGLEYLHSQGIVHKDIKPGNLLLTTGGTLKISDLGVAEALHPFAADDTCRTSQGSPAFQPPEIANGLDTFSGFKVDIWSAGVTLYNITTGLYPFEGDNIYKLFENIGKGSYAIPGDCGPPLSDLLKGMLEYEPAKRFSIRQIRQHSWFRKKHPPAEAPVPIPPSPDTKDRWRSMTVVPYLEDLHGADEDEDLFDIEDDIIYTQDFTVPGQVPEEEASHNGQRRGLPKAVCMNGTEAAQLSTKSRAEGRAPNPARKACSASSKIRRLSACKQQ
Summed up:
as §1

Experiment [8] has as its target Hck (UniProt P08631). To be noted: cell material: Lysate mix. The essentials: as §1
The target of experiment [9] is PKN3 (UniProt Q6P5Z2). To be noted: cell material: Lysate mix. The essentials: as §1
Sequence of PKN3 (Q6P5Z2 whole entry, looked up): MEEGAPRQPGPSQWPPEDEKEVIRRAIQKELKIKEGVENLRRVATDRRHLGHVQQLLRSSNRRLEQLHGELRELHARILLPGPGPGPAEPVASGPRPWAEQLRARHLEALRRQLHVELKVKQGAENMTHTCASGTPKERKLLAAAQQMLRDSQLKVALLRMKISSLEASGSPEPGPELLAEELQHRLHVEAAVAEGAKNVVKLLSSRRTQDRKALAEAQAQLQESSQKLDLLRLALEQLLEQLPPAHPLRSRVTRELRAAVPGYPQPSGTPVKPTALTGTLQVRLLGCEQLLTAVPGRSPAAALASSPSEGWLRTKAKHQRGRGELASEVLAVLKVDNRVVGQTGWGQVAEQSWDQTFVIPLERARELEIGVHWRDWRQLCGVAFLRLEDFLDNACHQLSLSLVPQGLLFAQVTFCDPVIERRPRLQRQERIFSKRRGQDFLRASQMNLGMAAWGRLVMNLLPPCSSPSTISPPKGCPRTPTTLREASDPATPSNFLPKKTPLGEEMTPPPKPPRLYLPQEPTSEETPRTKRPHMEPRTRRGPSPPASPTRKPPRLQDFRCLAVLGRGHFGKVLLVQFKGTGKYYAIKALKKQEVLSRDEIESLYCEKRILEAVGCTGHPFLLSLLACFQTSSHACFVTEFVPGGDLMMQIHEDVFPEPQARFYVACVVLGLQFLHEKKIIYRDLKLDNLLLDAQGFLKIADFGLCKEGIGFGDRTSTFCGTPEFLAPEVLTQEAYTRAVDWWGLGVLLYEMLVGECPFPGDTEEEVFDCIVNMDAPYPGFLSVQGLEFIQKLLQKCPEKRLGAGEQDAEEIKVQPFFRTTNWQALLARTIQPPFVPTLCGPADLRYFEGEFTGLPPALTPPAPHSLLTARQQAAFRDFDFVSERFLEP
In experiment [10] the target is T3, UniProt Q9Y2U5.
T3 sequence (whole entry): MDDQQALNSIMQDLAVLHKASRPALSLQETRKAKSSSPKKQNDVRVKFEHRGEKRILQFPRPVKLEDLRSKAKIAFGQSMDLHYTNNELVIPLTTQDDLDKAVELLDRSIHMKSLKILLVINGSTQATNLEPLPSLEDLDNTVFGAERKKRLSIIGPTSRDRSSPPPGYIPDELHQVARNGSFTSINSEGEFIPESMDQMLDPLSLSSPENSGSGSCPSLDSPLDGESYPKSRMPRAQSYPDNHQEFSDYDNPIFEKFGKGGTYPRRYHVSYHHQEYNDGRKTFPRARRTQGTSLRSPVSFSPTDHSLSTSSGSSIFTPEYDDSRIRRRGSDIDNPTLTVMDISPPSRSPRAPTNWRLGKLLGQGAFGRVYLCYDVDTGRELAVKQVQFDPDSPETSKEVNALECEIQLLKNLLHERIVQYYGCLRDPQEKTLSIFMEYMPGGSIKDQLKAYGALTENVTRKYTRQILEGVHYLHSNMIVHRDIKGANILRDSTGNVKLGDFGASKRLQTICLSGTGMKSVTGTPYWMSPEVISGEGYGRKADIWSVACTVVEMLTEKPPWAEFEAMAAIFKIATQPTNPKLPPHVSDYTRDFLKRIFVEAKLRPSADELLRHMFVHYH
The essentials:
as §1

Experiment [11] addresses UniProt P50613. Summed up:
as §1

Bounds are passed on as bounds.

Sequence of Hck (P08631 whole entry, looked up): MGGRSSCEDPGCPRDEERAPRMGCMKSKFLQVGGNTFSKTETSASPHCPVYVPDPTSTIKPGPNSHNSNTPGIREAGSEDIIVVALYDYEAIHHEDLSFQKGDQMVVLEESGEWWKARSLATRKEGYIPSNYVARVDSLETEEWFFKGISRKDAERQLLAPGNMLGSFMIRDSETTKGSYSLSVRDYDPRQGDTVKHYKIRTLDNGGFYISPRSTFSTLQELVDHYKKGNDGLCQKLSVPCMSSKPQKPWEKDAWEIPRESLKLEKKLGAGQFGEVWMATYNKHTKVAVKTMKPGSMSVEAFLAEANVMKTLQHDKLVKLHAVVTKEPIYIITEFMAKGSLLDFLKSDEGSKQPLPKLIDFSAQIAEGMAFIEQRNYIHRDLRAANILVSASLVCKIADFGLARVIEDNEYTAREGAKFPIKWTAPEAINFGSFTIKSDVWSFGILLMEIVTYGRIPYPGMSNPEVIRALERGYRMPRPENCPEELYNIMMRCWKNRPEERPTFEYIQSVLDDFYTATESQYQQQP
Sequence of LYN (P07948 whole entry, looked up): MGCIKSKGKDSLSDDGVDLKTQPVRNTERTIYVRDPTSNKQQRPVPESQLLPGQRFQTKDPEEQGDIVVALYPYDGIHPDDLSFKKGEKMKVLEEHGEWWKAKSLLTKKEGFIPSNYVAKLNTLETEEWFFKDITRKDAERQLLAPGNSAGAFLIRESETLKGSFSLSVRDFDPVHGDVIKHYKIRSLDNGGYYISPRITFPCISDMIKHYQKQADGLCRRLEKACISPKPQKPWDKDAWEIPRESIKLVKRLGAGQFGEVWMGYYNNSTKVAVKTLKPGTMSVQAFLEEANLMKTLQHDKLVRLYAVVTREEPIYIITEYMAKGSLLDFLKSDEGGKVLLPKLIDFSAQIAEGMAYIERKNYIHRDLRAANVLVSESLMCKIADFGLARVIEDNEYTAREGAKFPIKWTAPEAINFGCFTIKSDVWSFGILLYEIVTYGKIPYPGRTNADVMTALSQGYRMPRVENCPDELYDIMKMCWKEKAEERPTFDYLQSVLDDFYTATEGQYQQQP
Sequence of TAOK3 (Q9H2K8 whole entry, looked up): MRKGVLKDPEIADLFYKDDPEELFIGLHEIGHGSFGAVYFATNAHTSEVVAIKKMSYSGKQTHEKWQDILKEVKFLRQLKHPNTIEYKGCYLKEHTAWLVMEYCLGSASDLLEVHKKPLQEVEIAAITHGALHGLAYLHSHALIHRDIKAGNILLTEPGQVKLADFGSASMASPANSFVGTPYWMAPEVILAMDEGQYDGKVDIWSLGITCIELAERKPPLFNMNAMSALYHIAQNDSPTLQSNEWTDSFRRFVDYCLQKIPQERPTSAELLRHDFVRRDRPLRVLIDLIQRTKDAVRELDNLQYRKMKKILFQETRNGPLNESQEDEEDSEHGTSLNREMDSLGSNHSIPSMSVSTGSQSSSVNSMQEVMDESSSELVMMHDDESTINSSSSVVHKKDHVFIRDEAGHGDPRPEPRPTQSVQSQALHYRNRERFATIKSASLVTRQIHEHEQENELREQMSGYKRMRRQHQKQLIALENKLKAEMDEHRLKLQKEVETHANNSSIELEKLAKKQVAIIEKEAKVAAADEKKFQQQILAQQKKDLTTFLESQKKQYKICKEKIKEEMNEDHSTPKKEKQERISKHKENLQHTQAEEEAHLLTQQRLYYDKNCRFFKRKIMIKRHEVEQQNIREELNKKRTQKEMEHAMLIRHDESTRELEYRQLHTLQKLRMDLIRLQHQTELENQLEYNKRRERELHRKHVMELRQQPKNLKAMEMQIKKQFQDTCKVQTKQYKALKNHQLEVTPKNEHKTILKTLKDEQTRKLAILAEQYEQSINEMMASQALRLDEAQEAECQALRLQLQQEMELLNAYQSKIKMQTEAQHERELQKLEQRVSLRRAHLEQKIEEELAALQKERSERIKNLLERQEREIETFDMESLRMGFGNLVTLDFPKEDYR
Sequence of FGR (P09769 whole entry, looked up): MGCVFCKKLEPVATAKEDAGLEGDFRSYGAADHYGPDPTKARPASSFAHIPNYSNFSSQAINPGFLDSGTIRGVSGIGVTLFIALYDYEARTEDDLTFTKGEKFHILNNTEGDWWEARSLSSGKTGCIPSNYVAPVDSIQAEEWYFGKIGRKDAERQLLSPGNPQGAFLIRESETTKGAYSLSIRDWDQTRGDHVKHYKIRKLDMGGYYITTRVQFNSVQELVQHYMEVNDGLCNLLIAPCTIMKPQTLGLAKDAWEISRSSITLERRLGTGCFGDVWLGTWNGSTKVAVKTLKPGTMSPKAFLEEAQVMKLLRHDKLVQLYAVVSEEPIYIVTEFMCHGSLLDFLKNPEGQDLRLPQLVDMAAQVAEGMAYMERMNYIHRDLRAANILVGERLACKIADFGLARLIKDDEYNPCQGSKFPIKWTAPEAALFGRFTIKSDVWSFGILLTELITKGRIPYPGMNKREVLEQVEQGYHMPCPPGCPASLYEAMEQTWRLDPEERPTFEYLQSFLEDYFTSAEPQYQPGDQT
Sequence of UniProt P50613 (P50613 whole entry): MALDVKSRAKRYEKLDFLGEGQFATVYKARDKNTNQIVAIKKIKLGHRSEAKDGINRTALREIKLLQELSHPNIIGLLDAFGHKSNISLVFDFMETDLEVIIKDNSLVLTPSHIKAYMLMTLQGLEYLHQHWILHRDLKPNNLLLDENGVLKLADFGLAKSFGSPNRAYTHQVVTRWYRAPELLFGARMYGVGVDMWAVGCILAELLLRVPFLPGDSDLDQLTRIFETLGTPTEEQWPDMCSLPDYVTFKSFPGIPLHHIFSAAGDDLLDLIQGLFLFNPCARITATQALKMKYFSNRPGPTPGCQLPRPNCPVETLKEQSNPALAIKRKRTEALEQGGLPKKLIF

Regarding `Cc1cc(Nc2cc(C(=O)NCCNC(=O)OC3CC/C=C/CCC3)nc(N3CCN(Cc4ccc(S(=O)(=O)F)cc4)CC3)n2)n[nH]1` (stereo not drawn), the pIC50 in experiment [1] (cell material: Lysate mix) is 6.03; in experiment [2] (cell material: Lysate mix), below 4.52; in experiment [3] (cell material: Lysate mix) it was below 4.52; in experiment [4], below 4.52; in experiment [5] (cell material: Lysate mix), below 4.52; in experiment [6] (cell material: Lysate mix), below 4.52. Besides, the pIC50 in experiment [7] (cell material: Lysate mix), in [8], in experiment [9], in experiment [10] (cell material: Lysate mix) and in experiment [11] (cell material: Lysate mix) was below 4.52 in each case.

As to `C#CCNC(=O)c1cc(Nc2cc(C3CC3)[nH]n2)nc(N2CCN(Cc3ccc(S(=O)(=O)F)cc3)CC2)n1`, the negative-log IC50 (pIC50) was 5.56 in experiment [1] (cell material: Jurkat cells); below 4.52 in experiment [1] (cell material: Jurkat lysate); below 4.52 in [1] (cell material: Lysate mix); below 4.52 in experiment [2] (cell material: Jurkat cells); 5.37 in experiment [2] (cell material: Jurkat lysate); 5.96 in experiment [2] (cell material: Lysate mix). Moreover, the pIC50 in experiment [3] (cell material: Jurkat lysate) was 5.41; in experiment [3] (cell material: Lysate mix), 6.03; in [4] it was below 4.52; in [5] (cell material: Jurkat lysate), 5.6; in experiment [5] (cell material: Lysate mix), 6.2; in experiment [6] (cell material: Jurkat cells), 6.04. In addition, the pIC50 is 5.28 in [6] (cell material: Jurkat lysate); 5.92 in experiment [6] (cell material: Lysate mix); 5.81 in experiment [7] (cell material: Jurkat lysate); 6.42 in experiment [7] (cell material: Lysate mix); 5.86 in [8]; below 4.52 in experiment [9]. The pIC50 in experiment [10] (cell material: Jurkat cells) came out at 5.84; in [10] (cell material: Lysate mix), 5.47; in experiment [11] (cell material: Jurkat cells), 6.47; in [11] (cell material: Jurkat lysate) it was 5.78; in experiment [11] (cell material: Lysate mix), 6.35.

`CCNC(=O)c1cc(Nc2cc(C3CC3)[nH]n2)nc(N2CCN(Cc3ccc(S(=O)(=O)F)cc3)CC2)n1`: the pIC50 in experiment [1] (cell material: Lysate mix) was below 4.52; in [2] (cell material: Lysate mix), 5.72; in experiment [3] (cell material: Lysate mix), 5.92; in experiment [4], below 4.52; in [5] (cell material: Lysate mix), 5.92; in [6] (cell material: Lysate mix), 5.65. Also, the pIC50 in experiment [7] (cell material: Lysate mix) was 5.4; in experiment [8], 5.8; in experiment [9], below 4.52; in experiment [10] (cell material: Lysate mix), 5.29; in experiment [11] (cell material: Lysate mix), 6.33.

As to `C#CCNC(=O)c1cc(Nc2cc(C)[nH]n2)nc(N2CCN(Cc3ccc(S(=O)(=O)F)cc3)CC2)n1`, the pIC50 is below 4.52 in experiment [1] (cell material: Lysate mix); 5.11 in experiment [2] (cell material: Lysate mix); 5.54 in experiment [3] (cell material: Lysate mix); below 4.52 in experiment [4]; 5.51 in experiment [5] (cell material: Lysate mix); 5.73 in experiment [6] (cell material: Lysate mix). Also, the negative-log IC50 (pIC50) is 4.78 in experiment [7] (cell material: Lysate mix); 5.4 in [8]; below 4.52 in experiment [9]; 4.82 in [10] (cell material: Lysate mix); 5.14 in experiment [11] (cell material: Lysate mix).

Take `O=C(NCCNC(=O)c1cc(Nc2cc(C3CC3)[nH]n2)nc(N2CCN(Cc3ccc(S(=O)(=O)F)cc3)CC2)n1)OC1CC/C=C/CCC1` (stereo not drawn): the negative logarithm of the IC50 (pIC50) is 6.22 in experiment [1] (cell material: Jurkat cells); 5.61 in experiment [1] (cell material: Jurkat lysate); 5.55 in experiment [1] (cell material: Lysate mix); 5.53 in [2] (cell material: Jurkat cells); below 4.52 in [2] (cell material: Jurkat lysate); below 4.52 in experiment [3] (cell material: Jurkat lysate). Moreover, the negative-log IC50 (pIC50) is below 4.52 in experiment [3] (cell material: Lysate mix); below 4.52 in experiment [4]; 5.92 in experiment [5] (cell material: Jurkat cells); below 4.52 in experiment [5] (cell material: Jurkat lysate); 5.62 in experiment [6] (cell material: Jurkat cells); below 4.52 in [6] (cell material: Jurkat lysate). Also, the pIC50 in experiment [7] (cell material: Jurkat lysate) was below 4.52; in experiment [7] (cell material: Lysate mix) it was below 4.52; in experiment [8], below 4.52; in [9], below 4.52; in experiment [10] (cell material: Jurkat cells), 5.38; in [10] (cell material: Jurkat lysate), below 4.52. The negative-log IC50 (pIC50) was below 4.52 in experiment [10] (cell material: Lysate mix), 6.12 in experiment [11] (cell material: Jurkat cells) and 4.7 in experiment [11] (cell material: Jurkat lysate).

Turning to `CCNC(=O)c1cc(Nc2cc(C)[nH]n2)nc(N2CCN(Cc3ccc(S(=O)(=O)F)cc3)CC2)n1`, the negative logarithm of the IC50 (pIC50) in experiment [1] (cell material: Lysate mix) was below 4.52; in experiment [2] (cell material: Lysate mix), 4.8; in [3] (cell material: Lysate mix) it was 5.98; in [4], below 4.52; in [5] (cell material: Lysate mix) it was 5.92; in [6] (cell material: Lysate mix) it was 4.66. In addition, the negative logarithm of the IC50 (pIC50) was 4.61 in experiment [7] (cell material: Lysate mix); 5.62 in experiment [8]; below 4.52 in experiment [9]; 4.67 in experiment [10] (cell material: Lysate mix); 5 in [11] (cell material: Lysate mix).
